Experiment [1] deals with Escherichia coli. Put plainly: Antibacterial activity against Escherichia coli at 2 mg by agar well diffusion assay relative to imipenem. It counts as functional. On the technique in general: In agar diffusion tests the substance spreads into inoculated agar from a disc or well.
The subject of experiment [2] is Salmonella typhi. Nature of the experiment: Antibacterial activity against Salmonella typhi. Type of experiment: functional, Salmonella enterica subsp. enterica serovar Typhi. The note with it: Salmonella enterica.
In experiment [3] the test system is Aspergillus niger. Nature of the experiment: Antifungal activity against Aspergillus niger assessed as growth inhibition at 50 mg after 72 hrs dilution plate method. It counts as functional.
The subject of experiment [4] is Pseudomonas aeruginosa. Nature of the experiment: Antibacterial activity against Pseudomonas aeruginosa. It counts as functional.
Experiment [5] concerns Aspergillus flavus. Nature of the experiment: Antifungal activity against Aspergillus flavus assessed as growth inhibition at 50 mg after 72 hrs by dilution plate method. Type of experiment: functional.
The test system of experiment [6] is Aspergillus flavus. Nature of the experiment: Antifungal activity against Aspergillus flavus at 50 mg after 72 hrs by dilution plate method. Type of experiment: functional. As to conditions: read-out: IZ.
Experiment [7] relates to Fusarium oxysporum. Nature of the experiment: Antifungal activity against Fusarium oxysporum assessed as growth inhibition at 50 mg after 72 hrs by dilution plate method. It counts as functional.
For experiment [8], the system named is Bacillus subtilis. Nature of the experiment: Antibacterial activity against Bacillus subtilis. It counts as functional.
Experiment [9] deals with Bacillus subtilis. Nature of the experiment: Antibacterial activity against Bacillus subtilis at 2 mg by agar well diffusion assay relative to imipenem. Type of experiment: functional.
Experiment [10] has as its system Salmonella typhi. Nature of the experiment: Antibacterial activity against Salmonella typhi at 2 mg by agar well diffusion assay relative to imipenem. It counts as functional, Salmonella enterica subsp. enterica serovar Typhi.
Experiment [11] relates to Escherichia coli. Put plainly: Antibacterial activity against Escherichia coli. Type of experiment: functional.
For experiment [12], the system named is Staphylococcus aureus. Nature of the experiment: Antibacterial activity against Staphylococcus aureus. It counts as functional.

≈ marks a conversion by molar mass, not a printed value.

With `OC1=CC=CC/C1=N\c1ncnc2[nH]cnc12`, the “inhibition (INH)” value in experiment [1] amounted to 10%; in [3], 8%; in experiment [5], 10%; in experiment [7], 12%; in experiment [9], 30%; in [10] it was 10%. For the same compound, the MIC in [2] was 64 µg/mL (≈ 282 µM); in [4], 64 µg/mL (≈ 282 µM); in experiment [8], 128 µg/mL (≈ 563 µM); in [11] it was 64 µg/mL (≈ 282 µM); in [12], 128 µg/mL (≈ 563 µM). Also, in experiment [6], the zone of inhibition at 50000 µg/disc turned out to be 8 mm.

Usually MIC stands for the least concentration at which growth counts as inhibited. A lower MIC goes with a more susceptible organism.

These data come from ChEMBL document CHEMBL1154056, “Synthesis, characterization, antimicrobial and antitumor screening of some diorganotin(IV) complexes of 2-[(9H-Purin-6-ylimino)]-phenol” (Eur J Med Chem, 2009).
